Columns and labels:
Format in all cases: in vivo
Wheat [1] = experiment: post-emergence herbicide test; conditions: Triticum aestivum, post-emergence, 0.25 lb/A; read-out: % plant inhibition
Method in brief: (§1)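 Herbicidal effect measured as percent inhibition of each plant species after spraying. Application: atomizer, 170.3 kPa, 1870 L/Ha, about 0.4% emulsifier, to plants aged two to three weeks in greenhouse soil pans.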

Common Chickweed [2] = experiment: post-emergence herbicide test; conditions: post-emergence, 0.25 lb/A; read-out: % plant inhibition
Method in brief: as §1

Green Foxtail [3] = experiment: post-emergence herbicide test; conditions: Setaria viridis, post-emergence, 0.25 lb/A; read-out: % plant inhibition
Method in brief: as §1

Birdseye Speedwell [4] = experiment: post-emergence herbicide test; conditions: post-emergence, 0.25 lb/A; read-out: % plant inhibition
Method in brief: as §1

Velvetleaf [5] = experiment: post-emergence herbicide test; conditions: Abutilon theophrasti, post-emergence, 0.25 lb/A; read-out: % plant inhibition
Method in brief: as §1

Seedling Johnsongrass [6] = experiment: post-emergence herbicide test; conditions: Sorghum halepense, post-emergence, 0.25 lb/A; read-out: % plant inhibition
Method in brief: as §1

Bedstraw Catchweed [7] = experiment: post-emergence herbicide test; conditions: Galium aparine, post-emergence, 0.25 lb/A; read-out: % plant inhibition
Method in brief: as §1

Wild Oats [8] = experiment: post-emergence herbicide test; conditions: Avena fatua, post-emergence, 0.25 lb/A; read-out: % plant inhibition
Method in brief: as §1

Soybean [9] = experiment: post-emergence herbicide test; conditions: Glycine max, post-emergence, 0.25 lb/A; read-out: % plant inhibition
Method in brief: as §1

Downy Brome [10] = experiment: post-emergence herbicide test; conditions: Bromus tectorum, post-emergence, 0.25 lb/A; read-out: % plant inhibition
Method in brief: as §1

Rape [11] = experiment: post-emergence herbicide test; conditions: post-emergence, 0.25 lb/A; read-out: % plant inhibition
Method in brief: as §1

Morning Glory [12] = experiment: post-emergence herbicide test; conditions: Ipomoea, post-emergence, 0.25 lb/A; read-out: % plant inhibition
Method in brief: as §1

Blackgrass [13] = experiment: post-emergence herbicide test; conditions: Alopecurus myosuroides, post-emergence, 0.25 lb/A; read-out: % plant inhibition
Method in brief: as §1

Barnyardgrass [14] = experiment: post-emergence herbicide test; conditions: Echinochloa crus-galli, post-emergence, 0.25 lb/A; read-out: % plant inhibition
Method in brief: as §1

Corn [15] = experiment: post-emergence herbicide test; conditions: Zea mays, post-emergence, 0.25 lb/A; read-out: % plant inhibition
Method in brief: as §1

Cocklebur [16] = experiment: post-emergence herbicide test; conditions: Xanthium strumarium, post-emergence, 0.25 lb/A; read-out: % plant inhibition
Method in brief: as §1

Giant Foxtail [17] = experiment: post-emergence herbicide test; conditions: Setaria faberi, post-emergence, 0.25 lb/A; read-out: % plant inhibition
Method in brief: as §1

Wheat [18] = experiment: pre-emergence herbicide test; conditions: Triticum aestivum, pre-emergence, 0.25 lb/A; read-out: % plant inhibition
Method in brief: (§2)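 Greenhouse pan assay in which seeds lie under a treated topsoil cover; carrier was acetone or water. Inhibition (%) was recorded about 14 days post-treatment.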

Common Chickweed [19] = experiment: pre-emergence herbicide test; conditions: pre-emergence, 0.25 lb/A; read-out: % plant inhibition
Method in brief: as §2

Green Foxtail [20] = experiment: pre-emergence herbicide test; conditions: Setaria viridis, pre-emergence; 0.25 lb/A; read-out: % plant inhibition
Method in brief: as §2

Birdseye Speedwell [21] = experiment: pre-emergence herbicide test; conditions: pre-emergence, 0.25 lb/A; read-out: % plant inhibition
Method in brief: as §2

Velvetleaf [22] = experiment: pre-emergence herbicide test; conditions: Abutilon theophrasti, pre-emergence, 0.25 lb/A; read-out: % plant inhibition
Method in brief: as §2

Seedling Johnsongrass [23] = experiment: pre-emergence herbicide test; conditions: Sorghum halepense, pre-emergence, 0.25 lb/A; read-out: % plant inhibition
Method in brief: as §2

Bedstraw Catchweed [24] = experiment: pre-emergence herbicide test; conditions: Galium aparine, pre-emergence, 0.25 lb/A; read-out: % plant inhibition
Method in brief: as §2

Wild Oats [25] = experiment: pre-emergence herbicide test; conditions: Avena fatua, pre-emergence, 0.25 lb/A; read-out: % plant inhibition
Method in brief: as §2

Soybean [26] = experiment: pre-emergence herbicide test; conditions: Glycine max, pre-emergence, 0.25 lb/A; read-out: % plant inhibition
Method in brief: as §2

Downy Brome [27] = experiment: pre-emergence herbicide test; conditions: Bromus tectorum, pre-emergence, 0.25 lb/A; read-out: % plant inhibition
Method in brief: as §2

Rape [28] = experiment: pre-emergence herbicide test; conditions: pre-emergence, 0.25 lb/A; read-out: % plant inhibition
Method in brief: as §2

Morning Glory [29] = experiment: pre-emergence herbicide test; conditions: Ipomoea, pre-emergence, 0.25 lb/A; read-out: % plant inhibition
Method in brief: as §2

Blackgrass [30] = experiment: pre-emergence herbicide test; conditions: Alopecurus myosuroides, pre-emergence, 0.25 lb/A; read-out: % plant inhibition
Method in brief: as §2

Barnyardgrass [31] = experiment: pre-emergence herbicide test; conditions: Echinochloa crus-galli, pre-emergence, 0.25 lb/A; read-out: % plant inhibition
Method in brief: as §2

Corn [32] = experiment: pre-emergence herbicide test; conditions: Zea mays, pre-emergence, 0.25 lb/A; read-out: % plant inhibition
Method in brief: as §2

Cocklebur [33] = experiment: pre-emergence herbicide test; conditions: Xanthium strumarium, pre-emergence, 0.25 lb/A; read-out: % plant inhibition
Method in brief: as §2

Giant Foxtail [34] = experiment: pre-emergence herbicide test; conditions: Setaria faberi, pre-emergence, 0.25 lb/A; read-out: % plant inhibition
Method in brief: as §2

Row | SMILES | inhibition at 280.212 g/ha (Wheat [1]) | inhibition at 280.212 g/ha (Common Chickweed [2]) | inhibition at 280.212 g/ha (Green Foxtail [3]) | inhibition at 280.212 g/ha (Birdseye Speedwell [4]) | inhibition at 280.212 g/ha (Velvetleaf [5]) | inhibition at 280.212 g/ha (Seedling Johnsongrass [6]) | inhibition at 280.212 g/ha (Bedstraw Catchweed [7]) | inhibition at 280.212 g/ha (Wild Oats [8]) | inhibition at 280.212 g/ha (Soybean [9]) | inhibition at 280.212 g/ha (Downy Brome [10]) | inhibition at 280.212 g/ha (Rape [11]) | inhibition at 280.212 g/ha (Morning Glory [12]) | inhibition at 280.212 g/ha (Blackgrass [13]) | inhibition at 280.212 g/ha (Barnyardgrass [14]) | inhibition at 280.212 g/ha (Corn [15]) | inhibition at 280.212 g/ha (Cocklebur [16]) | inhibition at 280.212 g/ha (Giant Foxtail [17]) | inhibition at 280.212 g/ha (Wheat [18]) | inhibition at 280.212 g/ha (Common Chickweed [19]) | inhibition at 280.212 g/ha (Green Foxtail [20]) | further results
1 | Cc1c(-c2cc(CS(C)(=O)=O)c(Cl)cc2F)nn(C)c1C(F)(F)F [Compound 28] | 8% | 25% | 50% | 85% | 60% | 20% | 60% | 15% | 20% | 20% | 20% | 65% | 10% | 10% | 40% | 40% | 25% | 0% | 25% | 90% | inhibition at 280.212 g/ha (Birdseye Speedwell [21]): 70%; inhibition at 280.212 g/ha (Velvetleaf [22]): 45%; inhibition at 280.212 g/ha (Seedling Johnsongrass [23]): 50%; inhibition at 280.212 g/ha (Bedstraw Catchweed [24]): 40%; inhibition at 280.212 g/ha (Wild Oats [25]): 0%; inhibition at 280.212 g/ha (Soybean [26]): 0%; inhibition at 280.212 g/ha (Downy Brome [27]): 0%; inhibition at 280.212 g/ha (Rape [28]): 5%; inhibition at 280.212 g/ha (Morning Glory [29]): 0%; inhibition at 280.212 g/ha (Blackgrass [30]): 30%; inhibition at 280.212 g/ha (Barnyardgrass [31]): 15%; inhibition at 280.212 g/ha (Corn [32]): 3%; inhibition at 280.212 g/ha (Cocklebur [33]): 10%; inhibition at 280.212 g/ha (Giant Foxtail [34]): 30%
2 | COCCOC(=O)c1cc(-c2nn(C)c(C(F)(F)F)c2C)c(F)cc1Cl [Compound 56] | 16% | 90% | 98% | 100% | 100% | 95% | 98% | 80% | 90% | 85% | 98% | 80% | 60% | 50% | 35% | 99% | 100% | 5% | 95% | 100% | inhibition at 280.212 g/ha (Birdseye Speedwell [21]): 100%; inhibition at 280.212 g/ha (Velvetleaf [22]): 100%; inhibition at 280.212 g/ha (Seedling Johnsongrass [23]): 50%; inhibition at 280.212 g/ha (Bedstraw Catchweed [24]): 90%; inhibition at 280.212 g/ha (Wild Oats [25]): 55%; inhibition at 280.212 g/ha (Soybean [26]): 0%; inhibition at 280.212 g/ha (Downy Brome [27]): 100%; inhibition at 280.212 g/ha (Rape [28]): 5%; inhibition at 280.212 g/ha (Morning Glory [29]): 80%; inhibition at 280.212 g/ha (Blackgrass [30]): 75%; inhibition at 280.212 g/ha (Barnyardgrass [31]): 100%; inhibition at 280.212 g/ha (Corn [32]): 0%; inhibition at 280.212 g/ha (Cocklebur [33]): 20%; inhibition at 280.212 g/ha (Giant Foxtail [34]): 90%
3 | Cc1c(-c2cc(C(=O)OC3CCOC3)c(Cl)cc2F)nn(C)c1C(F)(F)F (stereo not drawn) [Compound 25] | 16% | 90% | 65% | 95% | 100% | 85% | 65% | 35% | 60% | 50% | 40% | 90% | 40% | 85% | 20% | 90% | 75% | 0% | 100% | 100% | inhibition at 280.212 g/ha (Birdseye Speedwell [21]): 100%; inhibition at 280.212 g/ha (Velvetleaf [22]): 80%; inhibition at 280.212 g/ha (Seedling Johnsongrass [23]): 99%; inhibition at 280.212 g/ha (Bedstraw Catchweed [24]): 85%; inhibition at 280.212 g/ha (Wild Oats [25]): 90%; inhibition at 280.212 g/ha (Soybean [26]): 5%; inhibition at 280.212 g/ha (Downy Brome [27]): 10%; inhibition at 280.212 g/ha (Rape [28]): 35%; inhibition at 280.212 g/ha (Morning Glory [29]): 55%; inhibition at 280.212 g/ha (Blackgrass [30]): 98%; inhibition at 280.212 g/ha (Barnyardgrass [31]): 95%; inhibition at 280.212 g/ha (Corn [32]): 45%; inhibition at 280.212 g/ha (Cocklebur [33]): 35%; inhibition at 280.212 g/ha (Giant Foxtail [34]): 100%
